What is called inhibition is the change of the read-out against control, counted positive when it falls. The term IC50 denotes the concentration at which inhibition is half-maximal.

In series [1] the target is T1, rKV1.2 (Rattus norvegicus, UniProt P63142).
T1 construct: expressed in transfected cells; host or cells: Xenopus laevis oocytes injected with cRNA
In words: Two-electrode voltage-clamp, X. laevis oocytes expressing rKV1.2. It counts as cell-based. The procedure: (§1) Stage V–VI of X. laevis oocytes were harvested by partial ovariectomy under anesthesia (3-aminobenzoic acid ethyl ester methanesulfonate salt, 0.5 g/L from Sigma-Aldrich Co., Saint Louis, MO, USA). The oocytes were defolliculated for 2 h by treatment with 2 mg/mL collagenase (Sigma-Aldrich Co., Saint Louis, MO, USA) in Ca^2+ free ND96 solution (in mM: 96 NaCl; 2 KCl; 1 MgCl2; 5 HEPES adjusted pH 7.4). For the expression of KV channels (KV1.1–KV1.6, KV2.1, KV3.1, KV4.2, KV4.3, hERG and the insect channel Shaker IR), the linearized plasmids were transcribed using the T7 or SP6 mMessage-mMachine transcription kit (Ambion, Austin, TX, USA). Oocytes were injected with 50 nL of cRNA at a concentration of 1 ng/nL using a microinjector (Drummond Scientific, Broomall, PA, USA). The oocytes were maintained in a ND96 solution (in mM: 96 NaCl, 2 KCl, 1.8 CaCl2, 2 MgCl2 and 5 HEPES; adjusted pH 7.4), supplemented with 50 µg/mL gentamicin sulfate.
(§2) Two-electrode voltage-clamp recordings were performed at room temperature (18–22 °C) using a Geneclamp 500 amplifier (Molecular Devices, Sunnyvale, CA, USA) controlled by a pClamp data acquisition system (Axon Instruments, Union City, CA, USA). Whole-cell currents from oocytes were recorded from 1 to 3 days after injection. Bath solution was the same ND96 solution described above. Voltage and current electrodes were filled with 3 M KCl. Resistances of both electrodes were kept between 0.8 and 1.0 ΩM. The elicited currents were filtered at 500 Hz using a four-pole lowpass Bessel filter. Leak subtraction was performed using a −P/4 protocol. KV1.1–KV1.6 and Shaker IR currents were evoked by 500 ms depolarizations to 0 mV, followed by a 500 ms pulse to −50 mV, from a holding potential of −90 mV. Current traces of hERG channels were elicited by applying a +40 mV prepulse for 2 s, followed by a step to −120 mV for 2 s. KV3.1, KV 4.2 and KV4.3 currents were elicited by 500 ms pulses to +20 mV from a holding potential of −90 mV. To assess the concentration-response relationships, data were fitted with the Hill equation: y = 100/[1 + (EC50/[toxin])h] (1) where y is the amplitude of the toxin-induced effect, EC50 is the toxin concentration at half maximal efficacy, [toxin] is the toxin concentration and h is the Hill coefficient. In order to investigate the current-voltage relationship, current traces were evoked by 10 mV depolarization steps from a holding potential of −90 mV. […]
(§3) Comparison of two sample means was made using a paired Student’s t test (p < 0.05). […] All data were analyzed using Clampfit 10.3 (Molecular Devices, Sunnyvale, CA, USA) and Origin 7.5 software (Origin Lab., Northampton, MA, USA).
On the technique in general: Two-electrode voltage clamp holds a large cell at a set potential and records current.

The target in series [2] is T2, rKV1.6 (Rattus norvegicus, UniProt P17659).
T2 construct: expressed in transfected cells; host or cells: Xenopus laevis oocytes injected with cRNA
In words: Two-electrode voltage-clamp, X. laevis oocytes expressing rKV1.6. The following applies: mean ± standard error. It counts as cell-based. The procedure:
as §1, §2, §3

For series [3], the target named is T3, Shaker IR (Drosophila melanogaster, UniProt P08510, DEL6-46).
T3 construct: expressed in transfected cells; host or cells: Xenopus laevis oocytes injected with cRNA
In words: Two-electrode voltage-clamp, X. laevis oocytes expressing Shaker IR. It is filed as cell-based, insect. The following applies: mean ± standard error. The protocol: as §1, §2, §3

For series [4], the system named is KV1.1–KV1.6, KV2.1, KV3.1, KV4.2, KV4.3, hERG and Shaker IR. In words: Electrophysiological screening on 12 cloned KV channel isoforms in X. laevis oocytes. It is filed as cell-based, rat, human, insect. The protocol:
The pharmacological profile of BcsTx-1 and -2 were determined on a wide range of twelve KV channels (rKV1.1, rKV1.2, hKV1.3, rKV1.4, rKV1.5, rKV1.6, rKV2.1, rKV3.1, rKV4.2, rKV4.3, hERG and the insect channel Shaker IR; r: rat and h: human). Channels were expressed in X. laevis oocytes, and their currents were recorded by using two-electrode voltage-clamp technique. BcsTx1 (0.5 µM) inhibited rKv1.1, rKv1.2, rKv1.3, rKv1.6 and Shaker IR channels with 44% ± 2%, 100%, 100%, 88% ± 3% and 64% ± 4%, respectively (Figure 6). […] Type 1 toxins, such as BgK and ShK, have been extensively characterized. […] Some of the other type 1 toxins were indirectly assayed by competitive inhibition of the binding of ^125I-dendrotoxins, allowing the conclusion that they will show activity on KV1.1, KV1.2 and/or KV1.6, since dendrotoxins only block the current of these KV channels. […] Thus, it is worth mentioning that our work represents the first electrophysiological characterization of type 1 sea anemone toxin activity on cloned Shaker IR insect channel.
as §1
Two-electrode voltage-clamp recordings were performed at room temperature (18–22 °C) using a Geneclamp 500 amplifier (Molecular Devices, Sunnyvale, CA, USA) controlled by a pClamp data acquisition system (Axon Instruments, Union City, CA, USA). Whole-cell currents from oocytes were recorded from 1 to 3 days after injection. Bath solution was the same ND96 solution described above. Voltage and current electrodes were filled with 3 M KCl. Resistances of both electrodes were kept between 0.8 and 1.0 ΩM. The elicited currents were filtered at 500 Hz using a four-pole lowpass Bessel filter. Leak subtraction was performed using a −P/4 protocol. KV1.1–KV1.6 and Shaker IR currents were evoked by 500 ms depolarizations to 0 mV, followed by a 500 ms pulse to −50 mV, from a holding potential of −90 mV. Current traces of hERG channels were elicited by applying a +40 mV prepulse for 2 s, followed by a step to −120 mV for 2 s. KV3.1, KV 4.2 and KV4.3 currents were elicited by 500 ms pulses to +20 mV from a holding potential of −90 mV. To assess the concentration-response relationships, data were fitted with the Hill equation: y = 100/[1 + (EC50/[toxin])h] (1) where y is the amplitude of the toxin-induced effect, EC50 is the toxin concentration at half maximal efficacy, [toxin] is the toxin concentration and h is the Hill coefficient. In order to investigate the current-voltage relationship, current traces were evoked by 10 mV depolarization steps from a holding potential of −90 mV. The activation curves were fitted with a Boltzmann relationship of the form: 1/(1 + e^[−(V − V^1/2)/^S^]) (2) where V1/2 is the voltage for half-maximal activation and s is the slope factor. The activation kinetics were obtained by mono-exponential fits to the raw current traces.

Series [5] deals with hKV1.3 (Homo sapiens, UniProt P22001). In words: Two-electrode voltage-clamp, X. laevis oocytes expressing hKV1.3. It counts as cell-based. Set-up: expressed in transfected cells; host or cells: Xenopus laevis oocytes injected with cRNA. The protocol: as §1, §2, §3
Setting [6] is: TEVC, 18–22 °C, ND96 pH 7.4, 500 ms depolarizations to 0 mV from −90 mV, Hill fit, mean ± standard error, n ≥ 3.
The mark [7] stands for this setting: TEVC, 18–22 °C, ND96 pH 7.4, 500 ms depolarizations to 0 mV from −90 mV, Hill fit, n ≥ 3.

Structures are written as SMILES. Where a SMILES comes first, the peptide text is derived from it. Bridges are numbered along the chain shown (N, C = ends).

T1 sequence (P63142 whole entry): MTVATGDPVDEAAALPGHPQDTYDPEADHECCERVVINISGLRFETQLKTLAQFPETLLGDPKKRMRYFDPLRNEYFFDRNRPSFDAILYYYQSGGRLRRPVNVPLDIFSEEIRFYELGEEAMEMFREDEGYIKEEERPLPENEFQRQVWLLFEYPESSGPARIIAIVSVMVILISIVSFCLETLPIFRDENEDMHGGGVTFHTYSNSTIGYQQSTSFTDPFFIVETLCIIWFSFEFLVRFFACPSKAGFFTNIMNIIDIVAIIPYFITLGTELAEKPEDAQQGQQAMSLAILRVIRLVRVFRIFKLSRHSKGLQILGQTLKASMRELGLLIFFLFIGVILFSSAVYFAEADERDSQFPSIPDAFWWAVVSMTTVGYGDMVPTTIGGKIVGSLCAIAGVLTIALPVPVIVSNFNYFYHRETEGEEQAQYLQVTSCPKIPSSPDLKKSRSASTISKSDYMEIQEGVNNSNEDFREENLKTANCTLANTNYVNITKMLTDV
Chain of hKV1.3 (P22001 whole entry): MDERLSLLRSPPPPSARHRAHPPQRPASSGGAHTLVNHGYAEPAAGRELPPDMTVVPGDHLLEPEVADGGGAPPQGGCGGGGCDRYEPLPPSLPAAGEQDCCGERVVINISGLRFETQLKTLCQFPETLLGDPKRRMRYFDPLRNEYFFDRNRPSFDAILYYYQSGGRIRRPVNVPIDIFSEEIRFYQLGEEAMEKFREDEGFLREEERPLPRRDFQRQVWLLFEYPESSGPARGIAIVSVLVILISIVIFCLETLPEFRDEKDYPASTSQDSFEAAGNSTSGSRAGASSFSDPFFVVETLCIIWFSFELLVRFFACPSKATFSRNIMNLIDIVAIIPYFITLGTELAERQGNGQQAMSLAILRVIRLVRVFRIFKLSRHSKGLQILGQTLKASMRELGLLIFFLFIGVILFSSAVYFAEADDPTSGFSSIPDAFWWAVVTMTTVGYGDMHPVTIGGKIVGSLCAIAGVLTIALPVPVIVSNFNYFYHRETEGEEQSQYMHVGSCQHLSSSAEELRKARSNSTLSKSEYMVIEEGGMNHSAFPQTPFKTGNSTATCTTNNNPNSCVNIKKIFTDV
T2 sequence (P17659 whole entry): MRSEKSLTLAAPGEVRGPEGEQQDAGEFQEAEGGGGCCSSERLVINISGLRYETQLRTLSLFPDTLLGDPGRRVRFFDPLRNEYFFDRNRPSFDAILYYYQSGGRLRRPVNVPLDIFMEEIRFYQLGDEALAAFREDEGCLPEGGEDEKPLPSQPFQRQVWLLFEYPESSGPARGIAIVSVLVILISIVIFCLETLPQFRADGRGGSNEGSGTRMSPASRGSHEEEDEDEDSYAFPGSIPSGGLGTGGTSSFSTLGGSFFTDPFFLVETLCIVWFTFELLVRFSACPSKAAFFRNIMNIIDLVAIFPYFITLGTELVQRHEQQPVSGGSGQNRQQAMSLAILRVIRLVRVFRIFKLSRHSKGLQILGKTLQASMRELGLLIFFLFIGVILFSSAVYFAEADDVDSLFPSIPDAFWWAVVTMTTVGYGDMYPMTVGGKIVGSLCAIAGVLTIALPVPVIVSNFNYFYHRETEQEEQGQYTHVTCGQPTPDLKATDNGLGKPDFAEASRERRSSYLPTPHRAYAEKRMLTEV
T3 sequence (P08510 with tags, fused parts or gaps DEL6-46): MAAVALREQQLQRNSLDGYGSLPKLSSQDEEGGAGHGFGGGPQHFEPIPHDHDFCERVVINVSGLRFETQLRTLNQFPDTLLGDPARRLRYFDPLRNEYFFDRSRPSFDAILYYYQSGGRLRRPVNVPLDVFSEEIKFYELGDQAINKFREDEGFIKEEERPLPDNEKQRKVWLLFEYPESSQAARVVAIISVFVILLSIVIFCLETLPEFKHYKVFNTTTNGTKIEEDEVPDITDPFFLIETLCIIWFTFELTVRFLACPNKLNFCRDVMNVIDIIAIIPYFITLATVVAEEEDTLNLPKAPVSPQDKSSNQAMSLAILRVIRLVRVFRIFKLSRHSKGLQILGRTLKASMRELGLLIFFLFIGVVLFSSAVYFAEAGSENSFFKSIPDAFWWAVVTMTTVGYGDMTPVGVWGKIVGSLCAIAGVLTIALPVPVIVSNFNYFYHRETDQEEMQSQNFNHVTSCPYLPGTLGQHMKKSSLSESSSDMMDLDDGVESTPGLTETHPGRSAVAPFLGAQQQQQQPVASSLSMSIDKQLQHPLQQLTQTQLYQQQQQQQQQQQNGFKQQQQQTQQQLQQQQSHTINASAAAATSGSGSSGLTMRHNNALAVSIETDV

Consider `CC(C)C[C@@H]1NC(=O)[C@H](CCCCN)NC(=O)[C@H](C)NC(=O)[C@H](Cc2c[nH]cn2)NC(=O)[C@H](CCC(N)=O)NC(=O)[C@@H]2CSSC[C@@H]3NC(=O)[C@H](CC(N)=O)NC(=O)[C@H](C)NC(=O)[C@H](CCCNC(=N)N)NC(=O)[C@H](Cc4ccc(O)cc4)NC(=O)[C@H](CCCCN)NC(=O)[C@H](CCC(N)=O)NC(=O)[C@H](CO)NC(=O)[C@H](CC(N)=O)NC(=O)[C@H](CCCCN)NC(=O)[C@H](CSSC[C@H](NC(=O)[C@H]([C@@H](C)O)NC(=O)[C@H](CCCCN)NC(=O)[C@H](C)NC3=O)C(=O)NCC(=O)N3CCC[C@H]3C(=O)N[C@H](C(=O)O)CSSC[C@H](NC(=O)[C@H](C)N)C(=O)N[C@@H](CCCCN)C(=O)N[C@@H](CC(=O)O)C(=O)NCC(=O)N[C@@H](Cc3ccccc3)C(=O)N3CCC[C@H]3C(=O)N[C@@H]([C@@H](C)O)C(=O)N[C@@H](C)C(=O)N[C@@H]([C@@H](C)O)C(=O)N2)NC(=O)[C@H](CC(N)=O)NC(=O)CNC(=O)[C@H](C(C)C)NC1=O` [BcsTx2] (H-ACKDGFPTATCQHAKLVGNCKNSQKYRANCAKTCGPC-OH; disulfide 2-37, 11-30, 20-34; C-terminus assumed), for which the inhibition at 3 µM in series [1] (3 µM, n ≥ 3, read-out: inhibition of rKV1.2 current) was determined as 100%; in series [2] (3 µM, n ≥ 3, read-out: inhibition of rKV1.6 current), 98%; in series [3] (3 µM, n ≥ 3, read-out: inhibition of Shaker IR current), 94%; in series [5] (3 µM, n ≥ 3, read-out: inhibition of hKV1.3 current), 100%. Also, the half-inhibitory concentration (IC50) in series [1] (setting [6]) is 80.4 ± 1.44 nM; in series [2] (setting [7]), 7.76 ± 1.9 nM; in series [3] (setting [7]) it was 49.1 ± 3.44 nM; in series [5] (setting [6]), 13.1 ± 3.29 nM. Besides, the “selectivity among KV channels (in words)” value in series [4] (3 µM, 12 KV isoforms) was “selectively blocks Shaker channels subfamily”. Also, the “potency class on KV channels (in words)” value in series [4] (summary of IC50 values, compared with BgK and type 2 toxins) was “within the nanomolar range”. Further, in series [4] (summary of the electrophysiological characterization), the “affinity/potency order among KV channels (in words)” value was “potently blocked rKv1.6 over hKv1.3, rKv1.1, Shaker IR and rKv1.2”.

Values taken from PMC3705364, “Biochemical and Electrophysiological Characterization of Two Sea Anemone Type 1 Potassium Toxins from a Geographically Distant Population of Bunodosoma caissarum” (Marine Drugs, 2013).
